pEC50, pIC50: −log10 of the molar value. Read-outs that look alike come from different tables or passages of the source.
How the values were obtained:
[1] = BA test (oral absorbability); assay type: in vivo; conditions: rat; for plasma concentration of the prodrug itself: oral administration, non-fasting, all plasma samples; for Parent compound BA(%): oral administration of parent compound
Protocol: Experimental Material and Method for Studying Oral Absorbability
(1) Animal to be used: A mouse or rat was used.
(2) Rearing conditions: Mouse and rat ingested a solid feed and sterilized tap water ad-libitum.
(3) Dose and setting of grouping: A predetermined dose was administered orally or intravenously. A group was set as follows. (a dose varied for every compound)
Oral administration 1 to 30 mg/kg (n=2 to 3)
Intravenous administration 0.5 to 10 mg/kg (n=2 to 3)
(4) Preparation of administration solution: For oral administration, a solution or suspension was administered. For intravenous administration, a compound which was solubilized was administered.
(5) Administration method: For oral administration, the administration solution was forcibly administered to the stomach by oral sonde. For intravenous administration, the administration solution was administered with a syringe equipped with an injection needle through a tail vein.
(6) Assessment item: Blood was collected with time, and a plasma drug concentration was measured using LC/MS/MS.
(7) Statistical analysis: Regarding plasma concentration transition, an area under a plasma concentration-time curve (AUC) was calculated using a non-linear minimum square method program WinNonlin (registered trademark), and bioavailability (BA) was calculated from AUC of an oral-administered group and an intervenous-administered group.

influenza virus = assay: microbe, parasite or virus in culture; assay type: cell-based; conditions: MDBK or MDCK cells, 3 days, WST-8
[2] = target: Cap-dependant Endonuclease (CEN) (RNP fraction, PB1-PB2-PA complex) (Influenza A virus (strain A/Wilson-Smith/1933 H1N1) (Influenza A virus (strain A/WS/1933 H1N1)), UniProt P15659); assay type: biochemical, influenza A/WSN/33 virus
[3] = unidentified influenza virus, 72 h, read-out: CPE EC50, parent compounds (Reference examples)
[4] = parent compounds (Reference examples), room temperature, 60 minutes

| SMILES | pEC50 (influenza virus; [3]) | pIC50 [2, 4] | other results |
| --- | --- | --- | --- |
| CC(=O)OCOc1c2n(ccc1=O)N(C1c3ccccc3CSc3ccccc31)CN(C(C)C)C2=O (stereo not shown) [Example 114] | – | – | plasma concentration of the prodrug itself [1]: a determination limit or less |
| CC(=O)Oc1c2n(ccc1=O)N(C1c3ccccc3CSc3ccccc31)CN(C(C)C)C2=O (stereo not shown) [Example 204] | – | – | plasma concentration of the prodrug itself [1]: a determination limit or less |
| CC(C)N1CN(C2c3ccccc3CSc3ccccc32)n2ccc(=O)c(O)c2C1=O (stereo not shown) [Reference example 301] | – | – | Parent compound BA(%) [1]: 2.3% |
| C[C@@H](N1CN([C@@H]2c3ccccc3SCc3cccc(Cl)c32)n2ccc(=O)c(O)c2C1=O)C(F)(F)F [Reference example 429] | 8.40 | – | Parent compound BA(%) [1]: 13.3% |
| C[C@@H](N1CN([C@@H]2c3ccccc3SCc3c(F)cccc32)n2ccc(=O)c(O)c2C1=O)C(F)(F)F [Reference example 445] | 8.40 | 7.89 | Parent compound BA(%) [1]: 12.1% |
| COC[C@H](C)N1C(=O)c2c(O)c(=O)ccn2N(C2c3ccccc3CCc3ccccc32)C1CCN(C)C (stereo partly shown) [Reference example 644] | 7.22 | – | pIC50 [2]: 6.62 |
| COCC[C@@H]1N([C@H](C)C(F)(F)F)C(=O)c2c(O)c(=O)ccn2N1C1c2ccccc2CCc2ccccc21 [Reference example 645] | 7.80 | 6.98 | – |
| C[C@@H](N1CN(C(c2ccccc2Cl)c2ccccc2Cl)n2ccc(=O)c(O)c2C1=O)C(F)(F)F [Reference example 648] | 7.23 | 6.88 | – |
| C[C@@H](N1CN(C(c2ccc(F)cc2)c2ccc(F)cc2)n2ccc(=O)c(O)c2C1=O)C(F)(F)F [Reference example 649] | 7.29 | 6.74 | – |
| C[C@@H](N1CN(C(c2ccccc2)c2ccc(Cl)cc2)n2ccc(=O)c(O)c2C1=O)C(F)(F)F (stereo partly shown) [Reference example 650] | 6.99 | 6.66 | – |
| C[C@@H](N1CN([C@@H](c2ccccc2)c2ccccc2Cl)n2ccc(=O)c(O)c2C1=O)C(F)(F)F [Reference example 651] | 7.89 | 7.25 | – |
| C[C@@H](N1CN([C@H](c2ccccc2)c2ccccc2Cl)n2ccc(=O)c(O)c2C1=O)C(F)(F)F [Reference example 652] | 7.10 | 6.48 | – |
| C[C@@H](N1CN([C@@H]2c3ccccc3SCc3cccc(Br)c32)n2ccc(=O)c(O)c2C1=O)C(F)(F)F [Reference example 654] | 9.00 | 8.10 | – |
| C[C@@H](N1CN([C@H]2c3cc(F)ccc3CSc3c(F)cccc32)n2ccc(=O)c(O)c2C1=O)C(F)(F)F [Reference example 656] | 7.72 | 7.15 | – |
| C[C@@H](N1CN([C@H]2c3cc(F)ccc3CSc3c(Cl)cccc32)n2ccc(=O)c(O)c2C1=O)C(F)(F)F [Reference example 658] | 7.72 | 7.28 | – |
| C[C@@H](N1CN([C@H]2c3ccccc3SCc3cccc(Br)c32)n2ccc(=O)c(O)c2C1=O)C(F)(F)F [Reference example 661] | 7.85 | 6.87 | – |
| Cc1cccc2c1[C@@H](N1CN([C@H](C)C(F)(F)F)C(=O)c3c(O)c(=O)ccn31)c1ccccc1SC2 [Reference example 662] | 7.66 | 6.50 | – |
| C[C@@H](N1CN([C@@H]2c3ccc(Cl)cc3SCc3c(F)cccc32)n2ccc(=O)c(O)c2C1=O)C(F)(F)F [Reference example 663] | 7.74 | 7.51 | – |
| Cc1cccc2c1[C@H](N1CN([C@H](C)C(F)(F)F)C(=O)c3c(O)c(=O)ccn31)c1ccccc1SC2 [Reference example 665] | 8.30 | 7.74 | – |
| C[C@@H](N1CN([C@@H]2c3ccccc3SCc3cccc(Cl)c32)n2cc(CO)c(=O)c(O)c2C1=O)C(F)(F)F [compound 666] | – | – | pIC50 [2]: 8.47; pEC50 (influenza virus; parent compounds (Reference examples), read-out: CPE EC50): 8.41 |
| C[C@@H](N1CN([C@H]2c3cc(F)c(F)cc3CSc3ccccc32)n2ccc(=O)c(O)c2C1=O)C(F)(F)F [compound 668] | 8.42 | – | pIC50 [2]: 7.90 |
| O=C1c2c(O)c(=O)ccn2N([C@@H]2c3ccccc3SCc3cccc(Cl)c32)[C@H]2COCCN12 [compound 682] | 8.46 | 7.71 | – |
| C[C@@H](N1CN(C2c3ccccc3CCc3cccc(Cl)c32)n2ccc(=O)c(O)c2C1=O)C(F)(F)F (stereo partly shown) [compound 686] | 8.10 | 7.82 | – |
| C[C@@H](N1CN([C@@H]2c3ccccc3SCc3cccc(C4CC4)c32)n2ccc(=O)c(O)c2C1=O)C(F)(F)F [compound 691] | 8.39 | 8.44 | – |

| SMILES | pEC50 (influenza virus; [3]) | pIC50 [2, 4] | other results |
| --- | --- | --- | --- |
| CC(=O)c1cn2c(c(O)c1=O)C(=O)N([C@H](C)C(F)(F)F)CN2[C@H]1c2cc(F)c(F)cc2CSc2ccccc21 [compound 692] | 8.02 | 7.43 | – |
| Cc1cn2c(c(O)c1=O)C(=O)N([C@H](C)C(F)(F)F)CN2[C@@H]1c2ccccc2SCc2c1ccc(F)c2F [compound 704] | 8.46 | 7.95 | – |
| CC(=O)c1cn2c(c(O)c1=O)C(=O)N([C@H](C)C(F)(F)F)CN2[C@@H]1c2ccccc2SCc2c1ccc(F)c2F [compound 706] | 8.14 | 7.73 | – |
| C[C@@H](N1CN([C@@H]2c3ccccc3SCc3cccc(Cl)c32)n2cc(B(O)O)c(=O)c(O)c2C1=O)C(F)(F)F [compound 707] | 8.52 | 7.40 | – |
| C[C@@H](N1CN([C@H]2c3ccc(F)cc3CSc3ccccc32)n2cc(B(O)O)c(=O)c(O)c2C1=O)C(F)(F)F [compound 708] | 8.07 | 7.33 | – |
| C[C@@H](N1CN([C@@H]2c3ccccc3SCc3c2ccc(F)c3F)n2cc(B(O)O)c(=O)c(O)c2C1=O)C(F)(F)F [compound 709] | 8.15 | 7.46 | – |
| CC(O)c1cn2c(c(O)c1=O)C(=O)N([C@H](C)C(F)(F)F)CN2[C@@H]1c2ccccc2SCc2cccc(Cl)c21 (stereo partly shown) [compound 710] | 8.01 | – | pIC50 [2]: 7.69 |
| C[C@@H](N1CN([C@@H]2c3ccccc3SCc3c2ccc(F)c3F)n2ccc(=O)c(O)c2C1=O)C(F)(F)F [compound 711] | 8.37 | – | pIC50 [2]: 8.25 |
| C[C@@H](N1CN([C@H]2c3ccccc3CSc3ccccc32)n2cc(CO)c(=O)c(O)c2C1=O)C(F)(F)F [compound 712] | 8.19 | 7.79 | – |
| C[C@@H](N1CN([C@@H]2c3ccccc3SCc3c2ccc(F)c3F)n2cc(Cl)c(=O)c(O)c2C1=O)C(F)(F)F [compound 716] | 8.25 | – | pIC50 [2]: 8.26 |
| C[C@@H](N1CN([C@@H]2c3ccccc3SCc3c(Cl)cccc32)n2cc(CO)c(=O)c(O)c2C1=O)C(F)(F)F [compound 719] | 8.08 | 8.59 | – |
| CCc1cccc2c1[C@H](N1CN([C@H](C)C(F)(F)F)C(=O)c3c(O)c(=O)ccn31)c1cccc(F)c1SC2 [compound 724] | 8.20 | 8.29 | – |
| C#Cc1cccc2c1[C@H](N1CN([C@H](C)C(F)(F)F)C(=O)c3c(O)c(=O)ccn31)c1cccc(F)c1SC2 [compound 726] | 8.41 | 8.43 | – |
| COc1cccc2c1[C@H](N1CN([C@H](C)C(F)(F)F)C(=O)c3c(O)c(=O)ccn31)c1ccccc1SC2 [compound 728] | 8.36 | 7.13 | – |
| C#Cc1cccc2c1[C@H](N1CN([C@H](C)C(F)(F)F)C(=O)c3c(O)c(=O)ccn31)c1ccccc1SC2 [compound 730] | 9.10 | 8.60 | – |
| CCc1cccc2c1[C@H](N1CN([C@H](C)C(F)(F)F)C(=O)c3c(O)c(=O)ccn31)c1ccccc1SC2 [compound 731] | 8.68 | 8.24 | – |
| C[C@@H](N1CN([C@@H]2c3ccccc3SCc3cccc(C(F)(F)F)c32)n2ccc(=O)c(O)c2C1=O)C(F)(F)F [compound 741] | 8.45 | 7.68 | – |
| C[C@@H]1Sc2ccccc2[C@@H](N2CN([C@H](C)C(F)(F)F)C(=O)c3c(O)c(=O)ccn32)c2c(Cl)cccc21 [compound 748] | 8.04 | 7.62 | – |
| C[C@@H](N1CN([C@@H]2c3ccccc3SCc3cccc(N(C)C)c32)n2ccc(=O)c(O)c2C1=O)C(F)(F)F [compound 752] | 8.51 | 7.85 | – |
| C[C@@H](N1CN([C@H]2c3ccccc3SCc3cccc(N(C)C)c32)n2ccc(=O)c(O)c2C1=O)C(F)(F)F [compound 753] | 7.73 | 6.96 | – |
| C[C@@H](N1CN([C@@H]2c3ccccc3SCc3cccc(Cl)c32)n2cc(Cl)c(=O)c(O)c2C1=O)C(F)(F)F [compound 762] | 8.23 | 7.50 | – |
| Cc1cccc2c1SCc1cccc(Cl)c1[C@@H]2N1CN([C@H](C)C(F)(F)F)C(=O)c2c(O)c(=O)ccn21 [compound 768] | 8.44 | 7.82 | – |
| C[C@@H](N1CN([C@@H]2c3cccc(F)c3SCc3cccc(Br)c32)n2ccc(=O)c(O)c2C1=O)C(F)(F)F [compound 771] | 8.39 | 8.23 | – |
| C[C@@H](N1CN([C@@H]2c3ccc(F)cc3SCc3cccc(Cl)c32)n2ccc(=O)c(O)c2C1=O)C(F)(F)F [compound 772] | 8.43 | 8.28 | – |

From patent US10202379B2, “Substituted polycyclic carbamoyl pyridone derivative prodrug” (priority 2010, dated 2019)
